Results taken from patent US12528826B2, “[1,4]oxazepino[2,3-c]quinolinone derivatives as BCL6 inhibitors” (Cancer Research Technology Limited, priority 2019, dated 2026).

molecular target: T1, Trx-6×His-BCL6 (human BCL6 BTB domain covering amino-acid sequence 5-129) (Homo sapiens, UniProt P41182); test: HTRF assay (BCL6 / BCOR peptide); type: binding; conditions: 1 nM Trx-6×His-BCL6, 300 nM BCOR-AF633 peptide, 2 hours incubation at room temperature
T1 construct: made in house
Method: After 2 hours incubation at room temperature the plate was read on a Pherastar FSX (BMG Labtech) plate reader equipped with 337 nm laser excitation filter, a first emission filter at 620 nm and a second emission filter at 665 nm. The % inhibition at each concentration was calculated by normalising FRET ratio to the appropriate high (DMSO with all reagents) and low (DMSO without BCL6) controls.

Structure (SMILES)	HTRF avg pIC50
CC(=O)N[C@H]1C[C@@H](C)CN(c2ncc(Cl)c(Nc3ccc4c(c3)c3c(c(=O)n4C)OCC(F)(F)[C@H](C4CC4)N3)n2)C1 [Example 1f, N-((3S,5R)-1-(5-chloro-4-(((S)-2-cyclopropyl-3,3-difluoro-7-methyl-6-oxo-1,2,3,4,6,7-hexahydro-[1,4]oxazepino[2,3-c]quinolin-10-yl)amino)pyrimidin-2-yl)-5-methylpiperidin-3-yl)acetamide]	8.60
Cn1c(=O)c2c(c3cc(Nc4ccnc(Cl)c4F)ccc31)N[C@@H](C1CC1)C(F)(F)CO2 [Example 4d, (S)-10-((2-chloro-3-fluoropyridin-4-yl)amino)-2-cyclopropyl-3,3-difluoro-7-methyl-1,2,3,4-tetrahydro-[1,4]oxazepino[2,3-c]quinolin-6(7H)-one]	7.78

same assay, conditions: 1 nM Trx-6×His-BCL6, 300 nM BCOR-AF633 peptide, 2 hours incubation at room temperature; read-out: HTRF avg pIC50 (converted)

Structure (SMILES)	IC50
C[C@@H]1CCN(c2ncc(Cl)c(Nc3ccc4c(c3)c3c(c(=O)n4C)OCC(F)(F)[C@H](C4CC4)N3)n2)C1 [Example 12x02, (S)-10-((5-chloro-2-((R)-3-methylpyrrolidin-1-yl)pyrimidin-4-yl)amino)-2-cyclopropyl-3,3-difluoro-7-methyl-1,2,3,4-tetrahydro-[1,4]oxazepino[2,3-c]quinolin-6(7H)-one]	21.4 nM
C[C@H]1C[C@@H](OCCN(C)C)CN(c2ncc(Cl)c(Nc3ccc4c(c3)c3c(c(=O)n4C)OCC(F)(F)[C@H](C4CC4)N3)n2)C1 [Example 12x28, (S)-10-((5-chloro-2-((3R,5S)-3-(2-(dimethylamino)ethoxy)-5-methylpiperidin-1-yl)pyrimidin-4-yl)amino)-2-cyclopropyl-3,3-difluoro-7-methyl-1,2,3,4-tetrahydro-[1,4]oxazepino[2,3-c]quinolin-6(7H)-one]	3.16 nM
Cn1c(=O)c2c(c3cc(Nc4nc(N5CC[C@H]5CO)ncc4Cl)ccc31)N[C@@H](C1CC1)C(F)(F)CO2 [Example 12x33a, (S)-10-((5-chloro-2-((S)-2-(hydroxymethyl)azetidin-1-yl)pyrimidin-4-yl)amino)-2-cyclopropyl-3,3-difluoro-7-methyl-1,2,3,4-tetrahydro-[1,4]oxazepino[2,3-c]quinolin-6(7H)-one]	2.14 nM
C[C@H]1CCCN(c2ncc(Cl)c(Nc3ccc4c(c3)c3c(c(=O)n4C)OCC(F)(F)[C@H](C4CC4)N3)n2)C1 [Example 1k, (S)-10-((5-chloro-2-((S)-3-methylpiperidin-1-yl)pyrimidin-4-yl)amino)-2-cyclopropyl-3,3-difluoro-7-methyl-1,2,3,4-tetrahydro-[1,4]oxazepino[2,3-c]quinolin-6(7H)-one]	38 nM
COC[C@@H]1CCCN1c1ncc(Cl)c(Nc2ccc3c(c2)c2c(c(=O)n3C)OCC(F)(F)[C@H](C3CC3)N2)n1 [Example 12x45a, (S)-10-((5-chloro-2-((S)-2-(methoxymethyl)pyrrolidin-1-yl)pyrimidin-4-yl)amino)-2-cyclopropyl-3,3-difluoro-7-methyl-1,2,3,4-tetrahydro-[1,4]oxazepino[2,3-c]quinolin-6(7H)-one]	11.2 nM
Cn1c(=O)c2c(c3cc(Nc4nc(N5CC(F)(F)C5)ncc4Cl)ccc31)N[C@@H](C1CC1)C(F)(F)CO2 [Example 1a, (S)-10-((5-chloro-2-(3,3-difluoroazetidin-1-yl)pyrimidin-4-yl)amino)-2-cyclopropyl-3,3-difluoro-7-methyl-1,2,3,4-tetrahydro-[1,4]oxazepino[2,3-c]quinolin-6(7H)-one]	10.2 nM
C[C@H]1CN(c2ncc(Cl)c(Nc3ccc4c(c3)c3c(c(=O)n4C)OCC(F)(F)[C@H](C4CC4)N3)n2)CC(=O)N1C [Example 1c, (S)-10-((5-chloro-2-((S)-3,4-dimethyl-5-oxopiperazin-1-yl)pyrimidin-4-yl)amino)-2-cyclopropyl-3,3-difluoro-7-methyl-1,2,3,4-tetrahydro-[1,4]oxazepino[2,3-c]quinolin-6(7H)-one]	2.34 nM
Cn1c(=O)c2c(c3cc(Nc4nc(N5CCC(F)(F)C(C(=O)N6CC(F)(F)C6)C5)ncc4Cl)ccc31)N[C@@H](C1CC1)C(F)(F)CO2 (mixture of isomers) [Example 12x19, (2S)-10-((5-chloro-2-(3-(3,3-difluoroazetidine-1-carbonyl)-4,4-difluoropiperidin-1-yl)pyrimidin-4-yl)amino)-2-cyclopropyl-3,3-difluoro-7-methyl-1,2,3,4-tetrahydro-[1,4]oxazepino[2,3-c]quinolin-6(7H)-one]	5.89 nM
Cn1c(=O)c2c(c3cc(Nc4nc(N5CCC[C@H]5CO)ncc4Cl)ccc31)N[C@@H](C1CC1)C(F)(F)CO2 [Example 12x44, (S)-10-((5-chloro-2-((S)-2-(hydroxymethyl)pyrrolidin-1-yl)pyrimidin-4-yl)amino)-2-cyclopropyl-3,3-difluoro-7-methyl-1,2,3,4-tetrahydro-[1,4]oxazepino[2,3-c]quinolin-6(7H)-one]	5.01 nM
Cn1c(=O)c2c(c3cc(Nc4nc(N5C[C@H](F)C[C@H]5CO)ncc4Cl)ccc31)N[C@@H](C1CC1)C(F)(F)CO2 [Example 12x48b, (S)-10-((5-chloro-2-((2S,4R)-4-fluoro-2-(hydroxymethyl)pyrrolidin-1-yl)pyrimidin-4-yl)amino)-2-cyclopropyl-3,3-difluoro-7-methyl-1,2,3,4-tetrahydro-[1,4]oxazepino[2,3-c]quinolin-6(7H)-one]	18.6 nM

Other lines, results leading:

IC50	Structure (SMILES)
3.63 nM	CCN1CC2CCC(C1=O)N2c1ncc(Cl)c(Nc2ccc3c(c2)c2c(c(=O)n3C)OCC(F)(F)[C@H](C3CC3)N2)n1 (mixture of isomers) [Example 9r, (S)-10-((5-chloro-2-((1S,5R)-3-ethyl-2-oxo-3,8-diazabicyclo[3.2.1]octan-8-yl)pyrimidin-4-yl)amino)-2-cyclopropyl-3,3-difluoro-7-methyl-1,2,3,4-tetrahydro-[1,4]oxazepino[2,3-c]quinolin-6(7H)-one; (S)-10-((5-chloro-2-((1R,5S)-3-ethyl-2-oxo-3,8-diazabicyclo[3.2.1]octan-8-yl)pyrimidin-4-yl)amino)-2-cyclopropyl-3,3-difluoro-7-methyl-1,2,3,4-tetrahydro-[1,4]oxazepino[2,3-c]quinolin-6(7H)-one]
3.47 nM	Cn1c(=O)c2c(c3cc(Nc4nc(N5CC6(CN(CC7CC7(F)F)C6)C5)ncc4Cl)ccc31)N[C@@H](C1CC1)C(F)(F)CO2 (stereo partly drawn) [Example 9x, (2S)-10-((5-chloro-2-(6-((2,2-difluorocyclopropyl)methyl)-2,6-diazaspiro[3.3]heptan-2-yl)pyrimidin-4-yl)amino)-2-cyclopropyl-3,3-difluoro-7-methyl-1,2,3,4-tetrahydro-[1,4]oxazepino[2,3-c]quinolin-6(7H)-one]
2.51 nM	CC(=O)N(C)[C@@H]1CN(c2ncc(Cl)c(Nc3ccc4c(c3)c3c(c(=O)n4C)OCC(F)(F)[C@H](C4CC4)N3)n2)CCC1(F)F [Example 9m, N-((R)-1-(5-chloro-4-(((S)-2-cyclopropyl-3,3-difluoro-7-methyl-6-oxo-1,2,3,4,6,7-hexahydro-[1,4]oxazepino[2,3-c]quinolin-10-yl)amino)pyrimidin-2-yl)-4,4-difluoropiperidin-3-yl)-N-methylacetamide]
2.75 nM	Cn1c(=O)c2c(c3cc(Nc4nc(N5CC6(CN(CC7CC7)C6)C5)ncc4Cl)ccc31)N[C@@H](C1CC1)C(F)(F)CO2 [Example 9w, (S)-10-((5-chloro-2-(6-(cyclopropylmethyl)-2,6-diazaspiro[3.3]heptan-2-yl)pyrimidin-4-yl)amino)-2-cyclopropyl-3,3-difluoro-7-methyl-1,2,3,4-tetrahydro-[1,4]oxazepino[2,3-c]quinolin-6(7H)-one]
15.8 nM	Cn1c(=O)c2c(c3cc(Nc4nc(N5CC[C@@H](F)[C@H](F)C5)ncc4Cl)ccc31)N[C@@H](C1CC1)C(F)(F)CO2 (racemic) [Example 10b, (S)-10-((5-chloro-2-((3S,4S)-3,4-difluoropiperidin-1-yl)pyrimidin-4-yl)amino)-2-cyclopropyl-3,3-difluoro-7-methyl-1,2,3,4-tetrahydro-[1,4]oxazepino[2,3-c]quinolin-6(7H)-one; (S)-10-((5-chloro-2-((3R,4R)-3,4-difluoropiperidin-1-yl)pyrimidin-4-yl)amino)-2-cyclopropyl-3,3-difluoro-7-methyl-1,2,3,4-tetrahydro-[1,4]oxazepino[2,3-c]quinolin-6(7H)-one]
2.75 nM	Cn1c(=O)c2c(c3cc(Nc4nc(N5CC6CCC(C5)N6CC5CC5)ncc4Cl)ccc31)N[C@@H](C1CC1)C(F)(F)CO2 [Example 9y, (2S)-10-((5-chloro-2-(8-(cyclopropylmethyl)-3,8-diazabicyclo[3.2.1]octan-3-yl)pyrimidin-4-yl)amino)-2-cyclopropyl-3,3-difluoro-7-methyl-1,2,3,4-tetrahydro-[1,4]oxazepino[2,3-c]quinolin-6(7H)-one]
4.9 nM	Cn1c(=O)c2c(c3cc(Nc4nc(N5CC6CC(C5)O6)ncc4Cl)ccc31)N[C@@H](C1CC1)C(F)(F)CO2 [Example 12d, (2S)-10-((2-(6-oxa-3-azabicyclo[3.1.1]heptan-3-yl)-5-chloropyrimidin-4-yl)amino)-2-cyclopropyl-3,3-difluoro-7-methyl-1,2,3,4-tetrahydro-[1,4]oxazepino[2,3-c]quinolin-6(7H)-one]
13.2 nM	Cn1c(=O)c2c(c3cc(Nc4nc(N5CCCC(C)(F)C5)ncc4Cl)ccc31)N[C@@H](C1CC1)C(F)(F)CO2 (mixture of isomers) [Example 11z, (S)-10-((5-chloro-2-((R)-3-fluoro-3-methylpiperidin-1-yl)pyrimidin-4-yl)amino)-2-cyclopropyl-3,3-difluoro-7-methyl-1,2,3,4-tetrahydro-[1,4]oxazepino[2,3-c]quinolin-6(7H)-one:(S)-10-((5-chloro-2-((S)-3-fluoro-3-methylpiperidin-1-yl)pyrimidin-4-yl)amino)-2-cyclopropyl-3,3-difluoro-7-methyl-1,2,3,4-tetrahydro-[1,4]oxazepino[2,3-c]quinolin-6(7H)-one (1:1)]
